Patent US10385107B2 (INDIANA UNIVERSITY RESEARCH AND TECHNOLOGY CORPORATION, priority 2014, dated 2019)
“Also recorded” adds a separate entry of the source.

Columns and labels:
[1] = target: T1, insulin receptor (Homo sapiens, UniProt P06213); assay: Insulin receptor competition binding assay (scintillation proximity); design: expressed in transfected cells; plasma membrane fragments; conditions: incubated in 20% plasma/PBS at 37° C.
[2] = target: T1, insulin receptor; assay: Insulin receptor phosphorylation assay, receptor transfected HEK293 cells; type: cell-based; design: expressed in transfected cells; host or cells: HEK293; conditions: incubated in 20% plasma
[3] = tested on: blood glucose; assay: Insulin tolerance test in C57/Blk mice (MIU-30); type: in vivo; conditions: C57 black mice, through 8 hr
Description: (generating “MIU-30c”). […] In FIG. 1B total blood glucose of MIU 30a and MIU 30c as compared to vehicle is reported as differential area under curve (AUC). […] These in vivo results are consistent with the in vitro analysis.

[4] = Stability of Phe^B1-Insulin Prodrug
[5] = tested on: blood glucose; assay: Comparative insulin tolerance for insulin prodrug analogs in mice; type: in vivo; conditions: for comparative insulin potency in vivo: mice, administered without pre-incubation
Description: The prodrug derivative MIU-29: [B^1(Y16,L17,Y25)29a: A^1(aF19-dLys(Ac),NLeu)] comprises a 4-amino-phenylalnine substitution at position A19 wherein a dipeptide dLys(Ac),NLeu have been covalently linked at the 4-amino position of the A19 residue. […]
(§1) Acylation of the insulin prodrug analogs was investigated to determine if retention times in vivo could be enhanced. […] (providing time for prodrug conversion) relative to the non-acylated prodrug (see FIG. 2).

[6] = In vitro activity of prodrugs relative to time incubated ex vivo; conditions: 30% ACN/PBS, pH 7.4, 37° C.
Method: FIG. 2 is a graph depicting the in vitro activity of the acylated prodrug MIU 42: B^1(Y16,L17,Y25)29a: A^1(dLys(rE-C14),Sar-aF19) (wherein an amino acid of the dipeptide prodrug element is acylated, linked at the gamma position “rE” of a glutamic acid linker) relative to time incubated ex vivo in 30% ACN/PBS at pH 7.4 and 37° C.
as §1

T1 sequence (P06213 28-758 limits assumed): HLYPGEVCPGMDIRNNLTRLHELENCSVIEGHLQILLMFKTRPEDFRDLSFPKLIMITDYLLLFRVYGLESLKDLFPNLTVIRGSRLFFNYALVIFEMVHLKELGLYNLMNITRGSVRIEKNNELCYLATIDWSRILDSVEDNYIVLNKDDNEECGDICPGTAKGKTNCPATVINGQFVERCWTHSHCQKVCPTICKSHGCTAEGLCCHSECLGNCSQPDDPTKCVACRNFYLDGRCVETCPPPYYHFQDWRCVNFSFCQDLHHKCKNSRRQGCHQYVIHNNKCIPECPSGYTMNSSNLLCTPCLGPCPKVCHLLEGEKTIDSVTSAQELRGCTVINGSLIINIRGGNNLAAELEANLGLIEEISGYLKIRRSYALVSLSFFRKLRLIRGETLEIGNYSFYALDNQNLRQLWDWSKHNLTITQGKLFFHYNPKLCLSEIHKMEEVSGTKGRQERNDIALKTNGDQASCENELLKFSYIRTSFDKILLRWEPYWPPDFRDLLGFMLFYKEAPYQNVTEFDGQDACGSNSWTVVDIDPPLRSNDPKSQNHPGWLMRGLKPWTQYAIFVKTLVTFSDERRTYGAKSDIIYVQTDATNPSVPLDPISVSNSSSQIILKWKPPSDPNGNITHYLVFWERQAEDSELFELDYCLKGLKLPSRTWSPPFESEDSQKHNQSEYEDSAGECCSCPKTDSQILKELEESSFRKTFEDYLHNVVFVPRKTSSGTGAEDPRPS
T1 sequence (P06213 763-1382 partner limits assumed): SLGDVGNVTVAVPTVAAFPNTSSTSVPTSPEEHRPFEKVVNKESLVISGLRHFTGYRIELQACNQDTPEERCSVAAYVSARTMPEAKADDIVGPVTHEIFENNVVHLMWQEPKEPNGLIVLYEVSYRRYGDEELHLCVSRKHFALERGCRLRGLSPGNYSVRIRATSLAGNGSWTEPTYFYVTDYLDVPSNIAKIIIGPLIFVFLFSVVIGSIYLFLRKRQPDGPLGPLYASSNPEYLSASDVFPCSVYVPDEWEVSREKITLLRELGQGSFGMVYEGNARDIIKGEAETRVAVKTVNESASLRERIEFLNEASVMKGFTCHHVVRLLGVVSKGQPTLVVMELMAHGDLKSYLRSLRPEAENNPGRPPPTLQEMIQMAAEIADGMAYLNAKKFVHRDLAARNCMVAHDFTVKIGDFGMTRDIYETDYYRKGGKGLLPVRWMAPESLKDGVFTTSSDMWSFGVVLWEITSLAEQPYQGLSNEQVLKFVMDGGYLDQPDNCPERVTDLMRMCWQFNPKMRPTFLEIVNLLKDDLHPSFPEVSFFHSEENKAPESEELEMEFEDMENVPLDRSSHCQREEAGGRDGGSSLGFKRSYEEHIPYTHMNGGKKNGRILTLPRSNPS

B^1(Y16,L17,Y25)29a: A^1(dLys(Ac),Sar-aF19) [MIU30]
% Activity of Insulin (binding) ([1]; 0 hr): 34.44% | % Activity of Insulin (binding) ([1]; 9 hr): 100.09% | % Activity of Insulin (binding) ([1]; 95 hr): 115.42% | % Activity of Insulin (phosphorylation) ([2]; 1 hr): 23.0% | % Activity of Insulin (phosphorylation) ([2]; 3 hr): 26.8% | % Activity of Insulin (phosphorylation) ([2]; 6 hr): 32.5% | % Activity of Insulin (phosphorylation) ([2]; 9 hr): 41.1% | % Activity of Insulin (phosphorylation) ([2]; […]): 43.2% | blood glucose AUC vs vehicle (glucose lowering) ([3]; 90 nmol/kg): little change in glucose | blood glucose AUC vs vehicle (glucose lowering) ([3]; 270 nmol/kg): glucose lowering

Methyl dLys(C18) [Peptide 8]
Cleavage time [4]: > 240 h

[B^1(H5,10 Y16,L17,Y25, K29-C14)28a: A^1(N18,21, aF19NH2)] [MIU-46]
comparative insulin potency in vivo [5]: did not exhibit a desired in vivo potency or a basal profile

[B^1(Y16,L17,Y25)29a: A^1(aF19-dLys(Ac),NLeu)] [MIU-29]
ability to lower blood glucose compared to parent compound ([5]; normal mice, prodrug incubated 24 hours ex vivo before administration): performed almost identically

[B^1(Y16,L17,Y25)29a: A^1(dLys(rE-C14),Sar-aF19)] [MIU 42]
in vitro activity relative to time incubated ex vivo [6]: increases with time incubated ex vivo; also recorded: activity is restored | comparative insulin potency in vivo [5]: not very potent relative to the non-prodrug parent compound

isobutyl dLys(C18) [Peptide 10]
Cleavage time [4]: ~150 h
